Measurements from patent US5773421A, “Antifungal fusacandins” (Abbott Laboratories, priority 1995, dated 1998).
Converted amounts (≈) assume the structure as drawn. Like-named read-outs stand apart in the source and are kept apart here.

Key:
Assay in all cases: MIC by agar dilution method
Assay type in all cases: cell-based
[1] = system: Candida albicans ATCC 62376
Procedure: (§1) Minimal inhibitory concentrations (MICs) were determined by an agar dilution method. The test compounds were serially diluted in MeOH and 0.2 mL portions were mixed with 20 mL of molten, cooled Sabouraud dextrose agar (Difco). Yeast cell inoculum was prepared by growing cultures on Sabouraud dextrose agar for 18 hours at 32° C. and suspending the cells in phosphate buffered saline. Filamentous fungi were grown under the same conditions for 4 days to obtain spores. The inoculum level for all cultures was adjusted to 10^4 cells using a Petroff-Hauser cell counter. The glutarimide antifungal compounds cycloheximide or amphotericin B were used as a control. Inoculated test plates were incubated at 32° C. and examined after 20 hours.

Candida albicans CCH 442 = details: CCH442; Table 6c, 3rd value column (head printed II); III Candida albicans CCH 442; agar dilution; read-out: MIC II
Procedure: as §1

Candida albicans 579a = details: read-out: MIC II
Procedure: as §1

[2] = system: Candida albicans ATCC 38247
Procedure: as §1

[3] = system: Candida albicans ATCC 10231
Procedure: as §1

[4] = ATCC62376, Table 6c, V Candida albicans ATCC 62376, agar dilution, read-out: MIC V
[5] = Table 6c, II Candida albicans 579a, agar dilution
[6] = ATCC38247, Table 6c, IV Candida albicans ATCC 38247, agar dilution, read-out: MIC IV
[7] = ATCC10231, Table 6c, I Candida albicans ATCC 10231, agar dilution, read-out: MIC I
[8] = Candida albicans, ATCC62376, read-out: MIC V
[9] = Candida albicans, ATCC38247, read-out: MIC IV
[10] = Candida albicans, ATCC10231, read-out: MIC I

Row | SMILES | MIC [1, 4] [µg/mL] | MIC (Candida albicans CCH 442) [µg/mL] | MIC (Candida albicans 579a; [5]) [µg/mL] | MIC [2, 6] [µg/mL] | MIC [3, 7] [µg/mL] | MIC [1, 8] [µg/mL] | MIC (Candida albicans 579a; Candida albicans, 579A) [µg/mL] | MIC [2, 9] [µg/mL] | MIC [3, 10] [µg/mL]
1 | CCCCC/C=C/C=C/[C@@H](O)C/C=C/C=C/C(=O)O[C@@H]1[C@@H](O)[C@H](c2c(O)cc(O)cc2CO)O[C@H](CO)[C@H]1O[C@@H]1O[C@H](COC(=O)c2ccc(-c3ccc(O)cc3)cc2)[C@H](O)[C@H](O)[C@H]1O[C@@H]1O[C@H](CO)[C@H](O)[C@H](O)[C@H]1O [Example 41] | 12.5 (≈ 11.7 µM) | 6.25 (≈ 5.85 µM) | 6.25 (≈ 5.85 µM) | 6.25 (≈ 5.85 µM) | 12.5 (≈ 11.7 µM) |  |  |  | 
2 | CCCCC/C=C/C=C/[C@@H](O)C/C=C/C=C/C(=O)O[C@@H]1[C@@H](O)[C@H](c2c(O)cc(O)cc2CO)O[C@H](CO)[C@H]1O[C@@H]1O[C@H](COC(=O)c2ccc3c(ccc4ccccc43)c2)[C@H](O)[C@H](O)[C@H]1O[C@@H]1O[C@H](CO)[C@H](O)[C@H](O)[C@H]1O [Example 25] |  | 0.78 (≈ 0.724 µM) |  |  |  | 1.56 (≈ 1.45 µM) | 0.78 (≈ 0.724 µM) | 1.56 (≈ 1.45 µM) | 1.56 (≈ 1.45 µM)
3 | CCCCC/C=C/C=C/[C@@H](O)C/C=C/C=C/C(=O)O[C@@H]1[C@@H](O)[C@H](c2c(O)cc(O)cc2CO)O[C@H](CO)[C@H]1O[C@@H]1O[C@H](COC(=O)c2ccc(-c3ccc(-c4ccccc4)cc3)cc2)[C@H](O)[C@H](O)[C@H]1O[C@@H]1O[C@H](CO)[C@H](O)[C@H](O)[C@H]1O [Example 33] | 0.78 (≈ 0.691 µM) | 0.78 (≈ 0.691 µM) | 0.78 (≈ 0.691 µM) | 3.12 (≈ 2.76 µM) | 1.56 (≈ 1.38 µM) |  |  |  | 
4 | CCCCC/C=C/C=C/[C@@H](O)C/C=C/C=C/C(=O)O[C@@H]1[C@@H](O)[C@H](c2c(O)cc(O)cc2CO)O[C@H](CO)[C@H]1O[C@@H]1O[C@H](COC(=O)c2ccc(-c3ccc(OCCC)cc3)cc2)[C@H](O)[C@H](O)[C@H]1O[C@@H]1O[C@H](CO)[C@H](O)[C@H](O)[C@H]1O [Example 42] | 0.78 (≈ 0.702 µM) | 0.78 (≈ 0.702 µM) | 0.78 (≈ 0.702 µM) | 0.78 (≈ 0.702 µM) | 0.78 (≈ 0.702 µM) |  |  |  | 
5 | CCCCC/C=C/C=C/[C@@H](O)C/C=C/C=C/C(=O)O[C@@H]1[C@@H](O)[C@H](c2c(O)cc(O)cc2CO)O[C@H](CO)[C@H]1O[C@@H]1O[C@H](COC(=O)c2ccc(Oc3ccccc3)cc2)[C@H](O)[C@H](O)[C@H]1O[C@@H]1O[C@H](CO)[C@H](O)[C@H](O)[C@H]1O [Example 31] | 3.12 (≈ 2.92 µM) | 3.12 (≈ 2.92 µM) | 1.56 (≈ 1.46 µM) | 3.12 (≈ 2.92 µM) | 3.12 (≈ 2.92 µM) |  |  |  | 
6 | CCCCC/C=C/C=C/[C@@H](O)C/C=C/C=C/C(=O)O[C@@H]1[C@@H](O)[C@H](c2c(O)cc(O)cc2CO)O[C@H](CO)[C@H]1O[C@@H]1O[C@H](COC(=O)c2ccc(-c3ccccc3)cc2)[C@H](O)[C@H](O)[C@H]1O[C@@H]1O[C@H](CO)[C@H](O)[C@H](O)[C@H]1O [Example 30] | 0.78 (≈ 0.741 µM) | 0.78 (≈ 0.741 µM) | 0.78 (≈ 0.741 µM) | 1.56 (≈ 1.48 µM) | 0.78 (≈ 0.741 µM) |  |  |  | 
7 | CCCCC/C=C/C=C/C(=O)OC[C@H]1O[C@@H](O[C@H]2[C@H](OC(=O)/C=C/C=C/C[C@H](O)/C=C/C=C/CCCCC)[C@@H](O)[C@H](c3c(O)cc(O)cc3CO)O[C@@H]2CO)[C@H](O[C@@H]2O[C@H](CO)[C@H](O)[C@H](O)[C@H]2O)[C@@H](O)[C@H]1O [Example 11] | 3.12 (≈ 3.05 µM) | 1.56 (≈ 1.52 µM) | 0.78 (≈ 0.762 µM) | 1.56 (≈ 1.52 µM) | 1.56 (≈ 1.52 µM) |  |  |  | 
8 | CCCCC/C=C/C=C/[C@@H](O)C/C=C/C=C/C(=O)O[C@@H]1[C@@H](O)[C@H](c2c(O)cc(O)cc2CO)O[C@H](CO)[C@H]1O[C@@H]1O[C@H](COC(=O)c2cc3ccccc3c3ccccc23)[C@H](O)[C@H](O)[C@H]1O[C@@H]1O[C@H](CO)[C@H](O)[C@H](O)[C@H]1O [Example 27] |  | 3.12 (≈ 2.9 µM) |  |  |  | 3.12 (≈ 2.9 µM) | 3.12 (≈ 2.9 µM) | 6.25 (≈ 5.8 µM) | 3.12 (≈ 2.9 µM)
9 | CCCCC/C=C/C=C/[C@@H](O)C/C=C/C=C/C(=O)O[C@@H]1[C@@H](O)[C@H](c2c(O)cc(O)cc2CO)O[C@H](CO)[C@H]1O[C@@H]1O[C@H](COC(=O)c2ccc(-c3ccc4c(c3)OCO4)cc2)[C@H](O)[C@H](O)[C@H]1O[C@@H]1O[C@H](CO)[C@H](O)[C@H](O)[C@H]1O [Example 36] | 1.56 (≈ 1.42 µM) | 1.56 (≈ 1.42 µM) | 0.78 (≈ 0.711 µM) | 1.56 (≈ 1.42 µM) | 1.56 (≈ 1.42 µM) |  |  |  | 
10 | CCCCC/C=C/C=C/[C@@H](O)C/C=C/C=C/C(=O)O[C@@H]1[C@@H](O)[C@H](c2c(O)cc(O)cc2CO)O[C@H](CO)[C@H]1O[C@@H]1O[C@H](COC(=O)c2cccc3ccccc23)[C@H](O)[C@H](O)[C@H]1O[C@@H]1O[C@H](CO)[C@H](O)[C@H](O)[C@H]1O [Example 20] | 6.25 (≈ 6.09 µM) | 3.12 (≈ 3.04 µM) | 3.12 (≈ 3.04 µM) | 1.56 (≈ 1.52 µM) | 3.12 (≈ 3.04 µM) |  |  |  | 
